{"source": "patent EP2359864B1", "about": "“Targeting Vector-Phospholipid Conjugates” (Bracco Suisse SA, priority 2005, dated 2019)", "molecules": {"B1": {"name": "monomeric peptide phospholipid conjugate (31) (peptide)", "peptide": "Ac-AQDWYYDEILSMADQLRHAFLSGGGGGK([Glutaryl-PEG2000-DSPE])-NH2"}}, "key": {"KDR [1]": {"tested_on": "KDR", "assay": "Binding affinity of peptide monomers to KDR (statement only)", "conditions": "statement in the description, no data shown"}, "[2]": {"tested_on": "KDR receptor expressed on the endothelium of neovessels", "assay": "In vivo ultrasound imaging of KDR-targeted contrast agents, rabbit VX2 tumor model", "parameters": "species or system New Zealand rabbits", "conditions": "confirmed using echographic examination of VX2 tumors in rabbits", "procedure": "The ability of ultrasound contrast agents containing KDR binding lipopeptides of the invention to bind to KDR-expressing tissue in vivo was assessed using a known model of angiogenesis: the rabbit VX2 tumor model.\nA known model of angiogenic tissue was used to examine the ability of the KDR-targeted ultrasound microbubbles to localize to and provide an image of angiogenic tissue. The VX2 rabbit carcinoma was serially implanted in the dorsal muscle of New Zealand rabbits (Charles River Laboratories, France) weighting 2.5/3kg.\nTumor was surgically removed, placed into McCoy's culture medium containing 10% fetal calf serum, antibiotics, 1.5 mM Glutamax I and cut into small pieces that were rinsed to remove blood and debris. Then tumor pieces (3 to 5 cm^3) were placed in a 50 ml Falcon tube containing 5 mL of complete medium. The tumor tissue was ground (Polytron) until no more solid pieces were visible. The murky fluid was centrifuged for 5 minutes at 300g and the supernatant discarded. Seven mL of fresh medium was added per 5 mL of pellet.\nRabbits received first 0.3 mL of Vetranquil (Acepromazine, Sanofi, injected intramuscularly) and were then anesthetized with an intramuscular injection of Ketaminol®5/Xylazine (Veterinaria AG/Sigma) mixture (50/10 mg/mL, 0.7 mL/kg). One hundred microliters of VX2 tumor homogenate was injected intramuscularly. Fifteen days after implantation of VX2 tumors, animals were anesthetized again with the same mixture, plus subcutaneous injection of 50% Urethane (2mL/kg, s.c.) (Sigma) for imaging experiments. […]\nAfter bubble injection (0.1 µL/kg of gas) using the preparations of either Example 16 or Example 17, insonation was stopped allowing bubbles to accumulate for 25 minutes. […] The amount of free circulating bubbles was then assessed by recording the signal obtained after 20 sec accumulation without insonation. Video frames from VX2 tumor imaging experiments were captured with video-capture and analysed with Image-Pro Plus 2.0 software. […]"}, "[3]": {"assay": "Storage stability: formation of lyso- compound (analytical HPLC)", "assay_type": "physicochemical", "conditions": "after 5 days at room temperature; material after Zorbax C-3 preparative HPLC", "procedure": "The present invention provides methods for producing dimeric peptide-phospholipid conjugates having very low levels of TFA. While certain methods provide for the synthesis and purification of such conjugates on a gram scale, formation of a lyso- version of the conjugates has been observed upon storage of lyophilized material at 5°C or upon storage of aqueous solutions of the conjugates. It is believed that the lyso- compound is formed by TFA-promoted acid hydrolysis of one of the phospholipid fatty acid esters in dimer peptide-phospholipid conjugates.\nMaterials used and conditions for the analytical HPLC system include the following: Column: Zorbax 300SB C-3; 3 mm i.d. x 150 mm; 3.5 µm particle; Eluent A : H2O (HPLC Grade with 0.1% TFA by volume); Eluent B: CH3CN (0.1% TFA by volume). Elution: Initial condition: 50% B then a linear gradient of 50-90% B over 3 min, hold at 90% B for 11 min; Flow rate: 0.5 mL/min; Detection: UV at 220 nm. Ret. time: (Compound (21)): 6.77 min, Rt (lyso): 4.06 min.\nThe fractions that contained (21) were combined and lyophilized to give a white fluffy solid. This was dissolved in water-acetonitrile, then lyophilized again. This provided 70 mg product devoid of the lyso- compound. The recovery was about 70%. After chromatography was completed, the system was washed with 95% B for 15 min at a flow rate of 30 mL/min. […]"}, "KDR [4]": {"tested_on": "KDR", "conditions": "as shown in co-pending U.S. Application No. 10/661,156; cited from earlier work"}, "[5]": {"biological_target": "Full-length KDR on transfected 293H cells (UniProt P35968)", "sequence (P35968 20-1356 limits assumed)": "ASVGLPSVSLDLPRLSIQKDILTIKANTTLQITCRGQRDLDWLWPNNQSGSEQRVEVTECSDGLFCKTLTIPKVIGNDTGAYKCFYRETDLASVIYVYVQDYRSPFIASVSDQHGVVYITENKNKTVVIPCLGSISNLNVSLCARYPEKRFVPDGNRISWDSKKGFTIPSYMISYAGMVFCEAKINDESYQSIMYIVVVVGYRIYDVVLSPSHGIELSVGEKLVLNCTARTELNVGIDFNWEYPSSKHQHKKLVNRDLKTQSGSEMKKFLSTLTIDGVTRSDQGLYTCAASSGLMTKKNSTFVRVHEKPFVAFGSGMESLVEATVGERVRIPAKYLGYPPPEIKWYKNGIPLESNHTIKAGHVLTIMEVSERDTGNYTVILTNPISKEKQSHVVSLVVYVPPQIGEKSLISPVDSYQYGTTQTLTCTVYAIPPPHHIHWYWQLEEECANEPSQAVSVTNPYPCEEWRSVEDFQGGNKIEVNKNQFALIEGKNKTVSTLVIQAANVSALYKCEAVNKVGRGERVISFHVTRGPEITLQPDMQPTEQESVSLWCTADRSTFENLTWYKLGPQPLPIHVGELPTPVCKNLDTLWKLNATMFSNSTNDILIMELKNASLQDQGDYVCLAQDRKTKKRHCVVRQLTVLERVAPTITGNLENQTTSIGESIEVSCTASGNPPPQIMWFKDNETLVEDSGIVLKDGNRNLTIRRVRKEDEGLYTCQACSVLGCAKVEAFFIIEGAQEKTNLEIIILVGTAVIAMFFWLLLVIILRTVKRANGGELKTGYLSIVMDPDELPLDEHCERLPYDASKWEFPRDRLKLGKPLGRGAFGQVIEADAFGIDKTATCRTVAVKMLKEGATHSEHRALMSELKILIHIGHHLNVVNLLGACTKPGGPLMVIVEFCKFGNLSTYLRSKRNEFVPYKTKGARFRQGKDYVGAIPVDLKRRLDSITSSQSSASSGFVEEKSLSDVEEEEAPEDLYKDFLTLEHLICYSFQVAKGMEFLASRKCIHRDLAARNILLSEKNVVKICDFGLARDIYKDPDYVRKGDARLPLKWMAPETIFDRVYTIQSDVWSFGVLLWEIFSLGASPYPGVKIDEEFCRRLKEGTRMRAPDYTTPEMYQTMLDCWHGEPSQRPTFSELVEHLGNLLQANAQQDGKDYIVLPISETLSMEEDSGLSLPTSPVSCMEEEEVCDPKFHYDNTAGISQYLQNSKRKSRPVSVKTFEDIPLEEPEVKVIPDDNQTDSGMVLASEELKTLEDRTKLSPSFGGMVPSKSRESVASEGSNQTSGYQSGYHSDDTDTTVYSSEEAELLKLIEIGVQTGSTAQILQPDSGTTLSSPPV", "assay": "static binding of targeted microbubbles (DSPC/DPPG envelope) on KDR-transfected 293H cells minus mock-transfected cells"}, "[6]": {"biological_target": "Full-length KDR on transfected 293H cells (UniProt P35968)", "assay": "static binding of targeted microbubbles (DSPC/DPPG envelope) on KDR-transfected 293H cells, 50% human plasma, microscopy"}, "[7]": {"biological_target": "Full-length KDR on transfected 293H cells (UniProt P35968)", "assay": "static binding of targeted microbubbles (DPPE/DPPG envelope) on KDR-transfected 293H cells minus mock-transfected cells"}, "[8]": {"biological_target": "Full-length KDR on transfected 293H cells (UniProt P35968)", "assay": "static binding of targeted microbubbles (DPPE/DPPG envelope) on KDR-transfected 293H cells, 50% human plasma, microscopy"}}, "note": "Where two headings read alike, the source gives them in different places. Numbered stars: 1 amine (or outer) side, 2 acyl side, 3 side chain; on linkers, the order of the positions; unused ones are H or OH. Side chains are listed from the residue outwards. * marks the point of attachment. DSPE = CCCCCCCCCCCCCCCCCC(=O)OC[C@H](COP(=O)(O)OCCN*)OC(=O)CCCCCCCCCCCCCCCCC; Glutaryl = O=C(CCCC(=O)[*:2])[*:1]", "data": [{"molecule": "CC[C@H](C)[C@H](NC(=O)[C@H](CCC(=O)O)NC(=O)[C@H](CC(=O)O)NC(=O)[C@H](Cc1ccc(O)cc1)NC(=O)[C@H](Cc1ccc(O)cc1)NC(=O)[C@H](Cc1c[nH]c2ccccc12)NC(=O)[C@H](CC(=O)O)NC(=O)[C@H](CCC(N)=O)NC(=O)[C@H](C)NC(=O)[C@H](CCCNC(=N)N)NC(C)=O)C(=O)N[C@@H](CC(C)C)C(=O)N[C@@H](CO)C(=O)N[C@@H](CCSC)C(=O)N[C@@H](C)C(=O)N[C@@H](CC(=O)O)C(=O)N[C@@H](CCC(N)=O)C(=O)N[C@@H](CC(C)C)C(=O)N[C@@H](CCCNC(=N)N)C(=O)N[C@@H](Cc1c[nH]cn1)C(=O)N[C@@H](C)C(=O)N[C@@H](Cc1ccccc1)C(=O)N[C@@H](CC(C)C)C(=O)N[C@@H](CO)C(=O)NCC(=O)NCC(=O)NCC(=O)NCC(=O)NCC(=O)N[C@@H](CCCCN)C(N)=O", "note": "[(2)]", "values": [{"measurement": "binding affinity to KDR", "setting": "KDR [1]", "result": "high affinity"}]}, {"molecule": "Ac-AGPTWCEDDWYYCWLFGTGGGK{Ac-VCWEDSWGGEVCFRYDP-GGGK[-Adoa-Adoa-Glut-K(DSPE-PEG2000-NH-Glut)]-NH2 cyclic (2-12) disulfide}-NH2 cyclic (6-13) disulfide [(11)]", "values": [{"measurement": "KDR binding of gas filled microbubbles formulated with the conjugate", "setting": "[2]", "result": "high KDR binding"}]}, {"molecule": "Ac-AGPTWCEDDWYYCWLFGTGGGK{Ac-VCWEDSWGGEVCFRYDPGGGK[-Adoa-Adoa-Glut-K(DSPE-PEG2000-NH-Glut)]-NH2 cyclic (2-12) disulfide}-NH2 cyclic (6-13) disulfide [(21)]", "values": [{"measurement": "formation of lyso- compound", "setting": "[3]", "result": "no lyso- compound formed"}]}, {"molecule": "Ac-AQDWYYDEILSMADQLRHAFLSGGGGGK(DSPE-PEG2000-NH-Glut)-NH2 [(31)]", "values": [{"measurement": "KDR binding of gas filled microbubbles formulated with the conjugate", "setting": "[2]", "result": "high KDR binding"}]}, {"molecule": "Ac-AQDWYYDEILSMADQLRHAFLSGGGGGK-NH2 [(32)]", "values": [{"measurement": "binding affinity to KDR", "setting": "KDR [4]", "result": "high affinity"}]}, {"molecule": "Ac-RAQDWYYDEILSMADQLRHAFLSGGGGGK(DSPE-PEG2000-NH-Glut)-NH2 (not fully specified; N-acetyl, C-amide, DSPE-PEG2000-NH-Glut lipid conjugate) [(1)]", "values": [{"measurement": "KDR binding of gas filled microbubbles formulated with the conjugate", "setting": "[2]", "result": "high KDR binding"}]}, {"molecule": "B1", "values": [{"measurement": "% of surface covered by bound microbubbles (KDR-Mock)", "setting": "[5]", "result": 27.7, "unit": "%"}, {"measurement": "% of surface covered by bound microbubbles (KDR)", "setting": "[6]", "result": 28, "unit": "%"}, {"measurement": "% of surface covered by bound microbubbles (KDR-Mock)", "setting": "[7]", "result": 23.5, "unit": "%"}, {"measurement": "% of surface covered by bound microbubbles (KDR)", "setting": "[8]", "result": 23.6, "unit": "%"}]}]}
